Patent EP1500700B1, “Use of a pectic acid lyase in a detergent” (KAO CORPORATION, priority 1997, dated 1998)

What was measured:
[1] = tested on: pectic acid lyases from Example 3 and Example 8; assay type: biochemical, Bacillus sp. KSM-P15; conditions: pH 7.5
[2] = tested on: pectic acid lyase from Bacillus sp. KSM-P15, wild type (BPAL, Example 3), Sequence No. 1; experiment: Effect of H2O2 on residual pectic acid lyase activity; assay type: biochemical; conditions: in the presence of 3% H2O2; 50 mM Tris-HCl buffer (pH 7.5), 30°C, 30 minutes
Protocol: (§1) 0.5 M glycine-NaOH buffer (pH 10.5) (0.3 ml), 6 mM calcium chloride (0.3 ml), and deionized water (1.7 ml) were placed in a test tube, which was then incubated at 30°C for 5 minutes. An appropriately diluted enzyme solution [0.1 ml, diluted with 50 mM Tris-HCl buffer containing 1 mM calcium chloride (pH 7.5)] was added to the test tube, which was further incubated at constant temperature for 5 minutes. An aqueous solution of polygalacturonic acid (0.6 ml, 1% (w/v), product of ICN Biomedicals Co., Lot 14482, pH 6.8 adjusted with sodium hydroxide solution) was added to the enzyme solution to initiate reaction, and the mixture was incubated at 30°C for 10 minutes. The reaction was terminated by the addition of 3 ml of 50 mM HCl. The quantity of unsaturated Oligogalacturonic acid formed in the reaction was determined through measuring the absorbance at 235 nm and calculating with the molar extinction coefficient of unsaturated digalacturonide (4600 M^-1 cm^-1, Hasegawa & Nagel, J. Food Sci., 31, 838-845, 1966). A test blank was prepared as follows: 50 mM hydrochloric acid (3 ml) was added to a reaction mixture treated without being incorporated with the enzyme solution, and subsequently an enzyme solution (0.1 ml) was added thereto. […]

[3] = tested on: recombinant pectic acid lyase of Bacillus sp. KSM-P15 (rPAL, Example 8), Sequence No. 1; experiment: as above; assay type: biochemical; conditions: in the presence of 3% H2O2; 50 mM Tris-HCl buffer (pH 7.5), 30°C, 30 minutes
Protocol: as §1

[4] = tested on: wild-type and reconbinant enzyme; experiment: Effect of the arginine-modifier 2,3-butanedione on residual activity; assay type: biochemical, Bacillus sp. KSM-P15; conditions: 0.1 M borate buffer pH 9.5, 30°C, 30 minutes; both enzymes

Row | Molecule | inhibition (in words) [1] | also measured
1 | CCOC(=O)OC(=O)OCC [diethyl pyrocarbonate] | slightly inhibited or did not completely inhibit the enzymes | 
2 | O=C(O)c1cc[c]([Hg][Cl])cc1 [p-Chloromercuribenzoic acid] | slightly inhibited or did not completely inhibit the enzymes | 
3 | CCN1C(=O)C=CC1=O [N-ethylmaleimide] | slightly inhibited or did not completely inhibit the enzymes | 
4 | O[C@H](CS)[C@H](O)CS (racemic) [dithiothreitol] | slightly inhibited or did not completely inhibit the enzymes | 
5 | H2O2 |  | inactivation (residual activity, in words) [2]: not be inactivated; inactivation (residual activity, in words) [3]: not be inactivated
6 | O=C(O)c1cc(SSc2ccc([N+](=O)[O-])c(C(=O)O)c2)ccc1[N+](=O)[O-] [5,5'-dithiobis(2-nitrobenzoic acid)] | slightly inhibited or did not completely inhibit the enzymes | 
7 | O=C(O)CI [iodoacetic acid] | slightly inhibited or did not completely inhibit the enzymes | 
8 | O=CC=O [glyoxal] | slightly inhibited or did not completely inhibit the enzymes | 
9 | CC(=O)C(C)=O [2,3-butanedione] |  | inhibition (residual activity) [4]: ≥ 40%
10 | O=C1CCC(=O)N1Br [N-bromosuccinimide] |  | percentage inhibition [1]: 30-40%
